In assay [1] the target is ligand binding domain (LBD) of recombinant human FXR (Homo sapiens (Human), UniProt Q96RI1). Nature of the assay: FXR cell free coactivator (SRC-1) recruitment assay, TR-FRET. The conditions noted are these: FXR LBD (amino acids 244-476) with labeled SRC-1 domain, 25° C. for 60 minutes, activity relative to CDCA maximum; read-out: EC50 FXR- Biochemical TR-FRET/μM. Here is the method:
A cell free coactivator recruitment assay was developed for FXR, to measure the functional potency of novel FXR compounds. In this assay, novel FXR compounds were bound to the ligand binding domain (LBD) of recombinant human FXR. The ability of this liganded homodimeric complex to recruit the co-activator protein steroid receptor coactivator 1 (SRC-1) was measured using Time-Resolved Fluorescence Resonance Energy Transfer (TR-FRET).
The LBD of human FXR (amino acids 244-476) was cloned into an expression vector for protein expression in SF9 insect cells. Purified FXR LBD was incubated in TR-FRET coregulator buffer G (Eurofins) with test compounds (0-10 micromolar) and a labeled nuclear receptor interaction domain of SRC-1 at 25° C. for 60 minutes (final DMSO vehicle concentration was 1.2%). Assays were analyzed using an Envision TR-FRET reader (PerkinElmer Life and Analytical Sciences). Compound activity at each concentration was defined as a percentage of the maximal activity of the natural FXR ligand agonist chenodeoxycholic acid (CDCA) generating a dose response curve.
In general terms: Time-resolved FRET reads energy transfer from a long-lived donor to a nearby acceptor.

Assay [2] has as its target full length human FXR protein (Homo sapiens (Human), UniProt Q96RI1). Description: FXR cellular assay (FXR-SRCP β-gal enzyme fragment complementation in CHO-K1 cells, chemiluminescence). The format is cell-based. Conditions: CHO-K1 cells with SRCP-EA and ProLink-labeled FXR, 0-10 micromolar compound, 37° C. for 6h, read-out: EC50 FXR-cell Luminescence/. The text has this:
A cell based FXR assay was used to detect protein-protein interactions between an activated (ligand-bound), full length human FXR protein and a nuclear fusion protein containing a Steroid Receptor Coactivator Peptide (SCRP) domain. In this approach, two weakly complementing fragments of the 3-gal enzyme were expressed within stably transfected Chinese Hamster Ovary (CHO-K1) cells. The complementing fragments of the 3-gal enzyme (ProLink, PK; and Enzyme Acceptor, EA) were translationally fused to the C-terminus of a full-length FXR and to the SRCP, respectively. Complementation was driven by the protein-protein interaction between SRCP-EA and a ProLink-labeled FXR. Upon FXR-SRCP binding, the two fragments of 3-gal complement, forming a functional enzyme capable of hydrolyzing a substrate molecule and generating a chemiluminescent signal.
CHO-K1 cells containing SRCP-EA and ProLink-labeled FXR were plated in 384-well microplates and incubated at 37° C. overnight. A positive control FXR agonist, GW4064 (0-10 micromolar), or test compounds (0-10 micromolar) were added to plated cells and incubated at 37° C. for 6h (final DMSO vehicle concentration was 1%). The assay signal was generated by addition of 50% (v/v) detection reagent (19:5:1, cell assay buffer: substrate reagent 1: substrate reagent 2, DiscoverX) followed by incubation for 1h at ambient room temperature. Microplates were analyzed using an Envision reader (PerkinElmer Life and Analytical Sciences, Signal=chemiluminescence).

Structures are written as SMILES. pEC50: −log10 of the molar value.

Chain of full length human FXR protein (Q96RI1 whole entry, the tested form may be a part): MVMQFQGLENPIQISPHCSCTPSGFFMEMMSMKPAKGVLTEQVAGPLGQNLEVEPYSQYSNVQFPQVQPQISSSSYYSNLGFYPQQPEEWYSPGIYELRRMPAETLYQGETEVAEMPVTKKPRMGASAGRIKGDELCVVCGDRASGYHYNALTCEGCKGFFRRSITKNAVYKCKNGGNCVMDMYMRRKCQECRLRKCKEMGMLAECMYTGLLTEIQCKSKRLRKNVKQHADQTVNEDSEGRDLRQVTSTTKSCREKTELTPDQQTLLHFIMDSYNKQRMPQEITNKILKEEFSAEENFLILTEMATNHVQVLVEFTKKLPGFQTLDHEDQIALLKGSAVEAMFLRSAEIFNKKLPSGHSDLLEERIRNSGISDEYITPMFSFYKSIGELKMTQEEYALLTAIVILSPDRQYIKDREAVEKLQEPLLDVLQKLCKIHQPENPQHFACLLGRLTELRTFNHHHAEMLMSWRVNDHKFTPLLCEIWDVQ
Chain of ligand binding domain (LBD) of recombinant human FXR (Q96RI1 254-486): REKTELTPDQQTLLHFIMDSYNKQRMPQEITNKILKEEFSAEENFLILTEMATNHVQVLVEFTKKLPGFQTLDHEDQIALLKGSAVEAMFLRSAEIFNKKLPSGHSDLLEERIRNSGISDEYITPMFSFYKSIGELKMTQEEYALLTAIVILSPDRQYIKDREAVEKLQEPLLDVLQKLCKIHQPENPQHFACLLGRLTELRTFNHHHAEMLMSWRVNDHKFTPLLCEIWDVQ
Chain of ligand binding domain (LBD) of recombinant human FXR (Q15788 whole entry partner, the tested form may be a part): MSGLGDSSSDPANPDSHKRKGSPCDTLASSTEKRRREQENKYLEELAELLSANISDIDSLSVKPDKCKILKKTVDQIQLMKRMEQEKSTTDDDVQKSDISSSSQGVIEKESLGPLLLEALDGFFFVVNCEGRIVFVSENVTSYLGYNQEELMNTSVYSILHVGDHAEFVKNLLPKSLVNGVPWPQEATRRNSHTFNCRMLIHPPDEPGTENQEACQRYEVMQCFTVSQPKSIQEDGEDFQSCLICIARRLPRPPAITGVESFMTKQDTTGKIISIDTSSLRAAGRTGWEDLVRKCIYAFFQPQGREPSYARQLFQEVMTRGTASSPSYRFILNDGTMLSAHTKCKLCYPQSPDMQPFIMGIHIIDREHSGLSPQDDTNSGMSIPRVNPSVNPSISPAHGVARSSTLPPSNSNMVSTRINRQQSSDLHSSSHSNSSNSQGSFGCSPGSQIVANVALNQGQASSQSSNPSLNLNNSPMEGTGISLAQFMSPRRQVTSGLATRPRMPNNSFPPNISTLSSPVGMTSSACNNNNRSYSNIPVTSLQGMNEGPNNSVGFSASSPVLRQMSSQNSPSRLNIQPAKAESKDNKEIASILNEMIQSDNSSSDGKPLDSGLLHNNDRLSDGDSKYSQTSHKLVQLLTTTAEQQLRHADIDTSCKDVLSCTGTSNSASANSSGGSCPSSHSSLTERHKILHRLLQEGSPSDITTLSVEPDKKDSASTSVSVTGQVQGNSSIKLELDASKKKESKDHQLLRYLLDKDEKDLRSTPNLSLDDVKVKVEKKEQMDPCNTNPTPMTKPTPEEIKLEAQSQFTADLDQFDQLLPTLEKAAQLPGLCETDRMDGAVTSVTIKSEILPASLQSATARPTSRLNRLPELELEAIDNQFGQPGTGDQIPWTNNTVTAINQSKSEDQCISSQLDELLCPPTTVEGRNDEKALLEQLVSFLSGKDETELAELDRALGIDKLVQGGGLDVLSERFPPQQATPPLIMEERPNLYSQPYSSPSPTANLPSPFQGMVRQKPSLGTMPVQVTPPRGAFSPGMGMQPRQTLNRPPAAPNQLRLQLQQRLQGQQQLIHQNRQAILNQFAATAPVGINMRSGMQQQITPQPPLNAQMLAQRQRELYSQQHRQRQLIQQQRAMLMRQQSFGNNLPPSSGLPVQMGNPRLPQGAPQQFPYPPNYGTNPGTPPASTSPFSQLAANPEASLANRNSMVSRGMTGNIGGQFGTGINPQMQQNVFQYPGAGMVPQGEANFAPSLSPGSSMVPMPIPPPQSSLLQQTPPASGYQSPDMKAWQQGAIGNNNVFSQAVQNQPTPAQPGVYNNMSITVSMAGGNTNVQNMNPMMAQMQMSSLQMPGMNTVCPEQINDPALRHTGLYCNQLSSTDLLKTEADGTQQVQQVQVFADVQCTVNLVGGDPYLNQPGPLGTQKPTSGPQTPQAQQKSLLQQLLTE

Consider `O=c1[nH]c(-c2cc(N3CCC(OCc4c(-c5c(Cl)cccc5Cl)noc4C4CC4)CC3)cs2)no1` [Example 30, 3-(4-(4-((5-cyclopropyl-3-(2,6-dichlorophenyl)isoxazol-4-yl)methoxy)piperidin-1-yl)thiophen-2-yl)-1,2,4-oxadiazol-5(4H)-one], for which, in assay [1], the EC50 was 0.296 µM. Further, the pEC50 in assay [2] was 5.44.
With `C[C@@H]1CN(c2ccc(-c3noc(=O)[nH]3)cc2)CC[C@@H]1OCc1c(-c2c(Cl)cccc2Cl)noc1C1CC1` [Example 31, 3-(4-((3R,4S)-4-((5-cyclopropyl-3-(2,6-dichlorophenyl)isoxazol-4-yl)methoxy)-3-methylpiperidin-1-yl)phenyl)-1,2,4-oxadiazol-5(4H)-one], the EC50 in assay [1] was determined as 0.045 µM. For the same compound, the pEC50 in assay [2] was 6.57.
On the same counts, the results for `C[C@H]1CN(c2ccc(-c3noc(=O)[nH]3)cc2)CC[C@H]1OCc1c(-c2c(Cl)cccc2Cl)noc1C1CC1` [Example 32, 3-(4-((3S,4R)-4-((5-cyclopropyl-3-(2,6-dichlorophenyl)isoxazol-4-yl)methoxy)-3-methylpiperidin-1-yl)phenyl)-1,2,4-oxadiazol-5(4H)-one] are 0.0126 µM and 6.71.
For `C[C@H]1CN(c2ccc(-c3noc(=O)[nH]3)cc2)CC[C@@H]1OCc1c(-c2c(Cl)cccc2Cl)noc1C1CC1` [Example 33, 3-(4-((3S,4S)-4-((5-cyclopropyl-3-(2,6-dichlorophenyl)isoxazol-4-yl)methoxy)-3-methylpiperidin-1-yl)phenyl)-1,2,4-oxadiazol-5(4H)-one] the same measures were 0.142 µM and 6.15.
For `C[C@@H]1CN(c2ccc(-c3noc(=O)[nH]3)cc2)CC[C@H]1OCc1c(-c2c(Cl)cccc2Cl)noc1C1CC1` [Example 34, 3-(4-((3R,4R)-4-((5-cyclopropyl-3-(2,6-dichlorophenyl)isoxazol-4-yl)methoxy)-3-methylpiperidin-1-yl)phenyl)-1,2,4-oxadiazol-5(4H)-one] the same measures were 0.153 µM and 6.11.
As to `O=c1[nH]c(-c2ccc(N3CCC(OCc4c(-c5c(Cl)cccc5Cl)noc4C4CC4)CC3)s2)no1` [Example 35, 3-(5-(4-((5-cyclopropyl-3-(2,6-dichlorophenyl)isoxazol-4-yl)methoxy)piperidin-1-yl)thiophen-2-yl)-1,2,4-oxadiazol-5(4H)-one], the EC50 in assay [1] worked out at 0.0435 µM. The pEC50 in assay [2] is 6.49.
On the same counts, the results for `O=c1[nH]c(-c2ccc(N3CCC(OCc4c(-c5ccccc5OC(F)(F)F)noc4C4CC4)CC3)cc2)no1` [Example 36, 3-(4-(4-((5-cyclopropyl-3-(2-(trifluoromethoxy)phenyl)isoxazol-4-yl)methoxy)piperidin-1-yl)phenyl)-1,2,4-oxadiazol-5(4H)-one] are 0.0188 µM and 6.95.
On the same counts, the results for `O=c1[nH]nc(-c2ccc(N3CCC(OCc4c(-c5c(Cl)cccc5Cl)noc4C4CC4)CC3)nc2)o1` [Example 37, 5-(6-(4-((5-cyclopropyl-3-(2,6-dichlorophenyl)isoxazol-4-yl)methoxy)piperidin-1-yl)pyridin-3-yl)-1,3,4-oxadiazol-2(3H)-one] are 0.0494 µM and 6.56.
On the same counts, the results for `O=c1[nH]c(-c2csc(N3CCC(OCc4c(-c5c(Cl)cccc5Cl)noc4C4CC4)CC3)c2)no1` [Example 38, 3-(5-(4-((5-cyclopropyl-3-(2,6-dichlorophenyl)isoxazol-4-yl)methoxy)piperidin-1-yl)thiophen-3-yl)-1,2,4-oxadiazol-5(4H)-one] are 0.0286 µM and 6.58.
Regarding `O=c1[nH]c(-c2ccc(N3CCC(OCc4c(-c5c(Cl)cccc5Cl)noc4C4CC4)CC3)c(F)c2)no1` [Example 39, 3-(4-(4-((5-cyclopropyl-3-(2,6-dichlorophenyl)isoxazol-4-yl)methoxy)piperidin-1-yl)-3-fluorophenyl)-1,2,4-oxadiazol-5(4H)-one], the EC50 in assay [1] is 0.0161 µM. Moreover, in assay [2], the pEC50 was 6.81.
For `O=c1[nH]nc(-c2ccc(N3CCC(OCc4c(-c5c(Cl)cccc5Cl)noc4C4CC4)CC3)cn2)o1` [Example 40, 5-(5-(4-((5-cyclopropyl-3-(2,6-dichlorophenyl)isoxazol-4-yl)methoxy)piperidin-1-yl)pyridin-2-yl)-1,3,4-oxadiazol-2(3H)-one] the same measures were 0.076 µM and 6.47.
For the compound `O=c1[nH]nc(-c2ccc(N3CCC(OCc4c(-c5c(Cl)cccc5Cl)noc4C4CC4)CC3)cc2F)c(=O)[nH]1` [Example 41, 6-(4-(4-((5-cyclopropyl-3-(2,6-dichlorophenyl)isoxazol-4-yl)methoxy)piperidin-1-yl)-2-fluorophenyl)-1,2,4-triazine-3,5(2H,4H)-dione], in assay [1], the EC50 came out at 0.0584 µM. For the same compound, the pEC50 in assay [2] was 6.61.
For `O=c1[nH]c(-c2cc(N3CCC(OCc4c(-c5c(Cl)cccc5Cl)noc4C4CC4)CC3)no2)no1` [Example 42, 3-(3-(4-((5-cyclopropyl-3-(2,6-dichlorophenyl)isoxazol-4-yl)methoxy)piperidin-1-yl)isoxazol-5-yl)-1,2,4-oxadiazol-5(4H)-one] the same measures were 0.139 µM and 5.00.
For `O=c1[nH]nc(-c2ccc(N3CCC(OCc4c(-c5c(Cl)cccc5Cl)noc4C4CC4)CC3)nc2)c(=O)[nH]1` [Example 43, 6-(6-(4-((5-cyclopropyl-3-(2,6-dichlorophenyl)isoxazol-4-yl)methoxy)piperidin-1-yl)pyridin-3-yl)-1,2,4-triazine-3,5(2H,4H)-dione] the same measures were 0.0112 µM and 6.61.
For `O=c1[nH]c(-c2ccc(N3CCC(OCc4c(-c5ccccc5Cl)noc4C4CC4)CC3)cc2)no1` [Example 44, 3-(4-(4-((3-(2-chlorophenyl)-5-cyclopropylisoxazol-4-yl)methoxy)piperidin-1-yl)phenyl)-1,2,4-oxadiazol-5(4H)-one] the same measures were 0.0213 µM and 6.43.
Take `O=c1[nH]c(-c2n[nH]c(N3CCC(OCc4c(-c5c(Cl)cccc5Cl)noc4C4CC4)CC3)n2)no1` [Example 45, 3-(5-(4-((5-cyclopropyl-3-(2,6-dichlorophenyl)isoxazol-4-yl)methoxy)piperidin-1-yl)-1H-1,2,4-triazol-3-yl)-1,2,4-oxadiazol-5(4H)-one]: the EC50 in assay [1] was found to be 0.61 µM. Moreover, the pEC50 in assay [2] was 5.00.
For `O=c1[nH]nc(-c2ccc(N3CCC(OCc4c(-c5c(Cl)cccc5Cl)noc4C4CC4)CC3)cn2)c(=O)[nH]1` [Example 46, 6-(5-(4-((5-cyclopropyl-3-(2,6-dichlorophenyl)isoxazol-4-yl)methoxy)piperidin-1-yl)pyridin-2-yl)-1,2,4-triazine-3,5(2H,4H)-dione] the same measures were 0.0746 µM and 5.00.
As for `O=c1[nH]c(-c2ccc(N3CCCC(OCc4c(-c5ccccc5OC(F)(F)F)noc4C4CC4)CC3)cc2)no1` (stereo not drawn) [Example 47, 3-(4-(4-((5-cyclopropyl-3-(2-(trifluoromethoxy)phenyl)isoxazol-4-yl)methoxy)azepan-1-yl)phenyl)-1,2,4-oxadiazol-5(4H)-one], the EC50 in assay [1] came to 0.0037 µM. In addition, the pEC50 in assay [2] was 7.12.
On the same counts, the results for `O=c1[nH]nc(-c2ccc(N3CCC(OCc4c(-c5c(Cl)cccc5Cl)noc4C4CC4)CC3)cc2F)o1` [Example 48, 5-(4-(4-((5-cyclopropyl-3-(2,6-dichlorophenyl)isoxazol-4-yl)methoxy)piperidin-1-yl)-2-fluorophenyl)-1,3,4-oxadiazol-2(3H)-one] are 0.0416 µM and 6.47.
On the same counts, the results for `O=c1[nH]c(-c2ccc(N3CCCC(OCc4c(-c5c(F)cccc5F)noc4C4CC4)CC3)cc2)no1` (stereo not drawn) [Example 49, 3-(4-(4-((5-cyclopropyl-3-(2,6-difluorophenyl)isoxazol-4-yl)methoxy)azepan-1-yl)phenyl)-1,2,4-oxadiazol-5(4H)-one] are 0.0117 µM and 6.83.
For `O=c1[nH]c(-c2ccc(N3[C@@H]4CC[C@H]3C[C@@H](OCc3c(-c5ccccc5OC(F)(F)F)noc3C3CC3)C4)cc2)no1` [Example 50, 3-(4-((1R,3r,5S)-3-((5-cyclopropyl-3-(2-(trifluoromethoxy)phenyl)isoxazol-4-yl)methoxy)-8-azabicyclo[3.2.1]octan-8-yl)phenyl)-1,2,4-oxadiazol-5(4H)-one] the same measures were 0.0032 µM and 7.27.

(Values after patent US20240116912A1, “COMPOUNDS AND METHODS FOR MODULATING FXR” (Terns Pharmaceuticals, Inc., priority 2020, published 2024).)
